US20100227313A1, “Methods and Compositions for Determining Altered Susceptibility of HIV-1 to Protease Inhibitor Treatment” (priority 2007, published 2010)

Key:
HIV-1 = experiment: Resistance test vector (PHENOSENSE) phenotypic susceptibility assay, fold change in IC50, correlated with genotype (Fisher's Exact test, odds ratio); assay type: cell-based, human immunodeficiency virus type 1; conditions: 2862 clinical samples; FC relative to wild-type (NL4-3); FIG. 1
Description: See Petropoulos et al., 2000, Antimicrob. Agents Chemother. 44:920-928; U.S. Pat. Nos. 5,837,464 and 6,242,187. PHENOSENSE™ is a phenotypic assay that achieves the benefits of phenotypic testing and overcomes the drawbacks of previous assays.
PHENOSENSE™ can obtain results with only one round of viral replication, thereby avoiding selection of subpopulations of virus that can occur during preparation of viral stocks required for assays that rely on fully infectious virus.
A resistance test vector (“RTV”) can then be constructed by incorporating the amplified viral gene sequences into a replication defective viral vector by using any method known in the art of incorporating gene sequences into a vector. In one embodiment, restrictions enzymes and conventional cloning methods are used. See Sambrook et al., 2001, Molecular Cloning: A Laboratory Manual, Cold Spring Harbor Laboratory, 3rd ed., NY; and Ausubel et al., 1989, Current Protocols in Molecular Biology, Greene Publishing Associates and Wiley Interscience, NY. In a preferred embodiment, ApaI and PinAI restriction enzymes are used. Preferably, the replication defective viral vector is the indicator gene viral vector (“IGVV”). In a preferred embodiment, the viral vector contains a means for detecting replication of the RTV. Preferably, the viral vector contains a luciferase expression cassette.
The assay can be performed by first co-transfecting host cells with RTV DNA and a plasmid that expresses the envelope proteins of another retrovirus, for example, amphotropic murine leukemia virus (MLV). Following transfection, viral particles can be harvested from the cell culture and used to infect fresh target cells in the presence of varying amounts of anti-viral drug(s). The completion of a single round of viral replication in the fresh target cells can be detected by the means for detecting replication contained in the vector. In a preferred embodiment, the completion of a single round of viral replication results in the production of luciferase. By monitoring the amount of, e.g., luciferase activity in the presence of the varying amounts of antiviral drug(s), a resistance curve can be constructed by plotting luciferase activity versus drug concentration. The susceptibility of an HIV, or population of HIV, can be determined by measuring the concentration of antiviral drug at which the luciferase activity detected is half-maximal. This number, the IC50, provides a standard and convenient measure of drug resistance.
Patient derived segment(s) corresponding to the HIV protease and reverse transcriptase coding regions were amplified by the reverse transcription polymerase chain reaction method (RT PCR) using viral RNA isolated from viral particles present in the plasma or serum of HIV infected individuals as follows. Viral RNA was isolated from the plasma or serum using oligo-dT magnetic beads (Dynal Biotech, Oslo, Norway), followed by washing and elution of viral RNA. The RT PCR protocol was divided into two steps. A retroviral reverse transcriptase (e.g. Moloney MuLV reverse transcriptase (Roche Molecular Systems, Inc., Branchburg, N.J.; Invitrogen, Carlsbad, Calif.), or avian myeloblastosis virus (AMV) reverse transcriptase, (Boehringer Mannheim, Indianapolis, Ind.) was used to copy viral RNA into cDNA. The cDNA was then amplified using a thermostable DNA polymerase (e.g. Taq (Roche Molecular Systems, Inc., Branchburg, N.J.), Tth (Roche Molecular Systems, Inc., Branchburg, N.J.), PRIMEZYME™ (isolated from Thermus brockianus, Biometra, Gottingen, Germany)) or a combination of thermostable polymerases as described for the performance of “long PCR” (Barnes, W.M., 1994, Proc. Natl. Acad. Sci, USA 91, 2216 20) (e.g. Expand High Fidelity PCR System (Taq+Pwo), (Boehringer Mannheim. Indianapolis, Ind.); GENEAMP XL™ PCR kit (Tth+Vent), (Roche Molecular Systems, Inc., Branchburg, N.J.); or […] II®, Clontech, Palo Alto, Calif.)

HIV protease = conditions: 2006, cited from earlier work; for effect of I47A mutation on susceptibility: de Mendoza et al.; for effect of L33F mutation in protease on susceptibility: Kozal et al.

Row | SMILES | correlation of FC in susceptibility with the FC in susceptibility for DRV (HIV-1) | effect of I47A mutation on susceptibility (HIV protease) | effect of L33F mutation in protease on susceptibility (HIV protease)
1 | COC(=O)N[C@H](C(=O)N[C@@H](Cc1ccccc1)[C@@H](O)CN(Cc1ccc(-c2ccccn2)cc1)NC(=O)[C@@H](NC(=O)OC)C(C)(C)C)C(C)(C)C [ATV, atazanavir] | no correlation | – | –
2 | Cc1cccc(C)c1OCC(=O)N[C@@H](Cc1ccccc1)[C@@H](O)C[C@H](Cc1ccccc1)NC(=O)[C@H](C(C)C)N1CCCNC1=O [LPV, lopinavir] | no correlation | reduced susceptibility | correlate with resistance
3 | CC(C)c1nc(CN(C)C(=O)N[C@H](C(=O)N[C@@H](Cc2ccccc2)C[C@H](O)[C@H](Cc2ccccc2)NC(=O)OCc2cncs2)C(C)C)cs1 [ritonavir] | – | – | correlate with resistance
4 | CC(C)(C)NC(=O)[C@@H]1C[C@@H]2CCCC[C@@H]2CN1C[C@@H](O)[C@H](Cc1ccccc1)NC(=O)[C@H](CC(N)=O)NC(=O)c1ccc2ccccc2n1 [saquinavir] | – | hypersusceptibility | correlate with resistance
